{"source": "patent US20120029054A1", "about": "“RNA Interference Mediated Inhibition of GATA Binding Protein 3 (GATA3) Gene Expression Using Short Intefering Nucleic Acid (siNA)” (Merck Sharp & Dohme Corp., priority 2009, published 2012)", "key": {"GATA3 protein": {"tested_on": "GATA3 protein", "assay": "GATA3 Western Blot in transfected MCF7 cells (6-well plate)", "type": "cell-based, human", "details": "30 nM, 48 hours, average band ratio ± S.D.", "experimental": "MCF7 cells were plated in 6-well plates at final counts of 70,000 cells/well in 2 ml of complete growth media. Transfection was performed using 2.5 uL of RNAiMax per well. Final concentration of siNAs was 30 nM (screen) and 30, 0.3, and 0.003 nM (dose response study). Protein lysates were harvested 24, 48, and 72 hours post-transfection (screen) and 72 hours post-transfection (dose response study). Protein lysates were prepared using Cell Disruption Buffer from the PARIS kit (Ambion, cat #1921) according to manufacturer's instructions. Protein concentration was measured using a Bradford Quick Start Kit (Bio-Rad, cat#500-0205).\nThe protein source for the Western Blot experiments were from transfection of MCF7 cells in a 6 well plate, as described above.\nProtein samples were diluted 1:1 in 2× Laemmli buffer with 5% β-mercapto-ethanol and incubated at 95° C. for 5 minutes. 20-40 ug of protein was loaded in each lane of 10% Tris-HCl gel. One lane was designated for MagicMark Protein Standard (Invitrogen # LC5602). The gel was run at 100V for approximately 2 hours. Protein was transferred to a PVDF membrane at 100V for 60 minutes. Once the transfer was finished, the membrane was blocked in 1% Casein in PBS (BioRad Cat#161-0783) for 1 hour on a plate rocker at room temperature followed by the overnight incubation at 4° C. with mouse monoclonal anti-GATA3 primary antibody (Santa Cruz Biotechnology, cat# HG3-31) diluted 1:500 in 1% Casein in PBS. On the next day, the blot was washed 4×5 minutes in PBST (0.1% Tween-20 in PBS) solution and incubated for 30 minutes at room temperature with goat anti-mouse secondary antibody (Pierce Biotechnology, cat#3 31430) diluted 1:20,000 in 1% Casein. […]\nThe protein bands were quantified by computing their density which is defined by the ratio between the total intensity of all pixels and the area of the rectangle drawn around each band (intensity/mm^2). The density was calculated by the BioRad software.\nThe level of protein was quantified using the Bio-Rad VersaDoc Imager according to the protocols of that piece of equipment. […]"}, "human GAPDH mRNA": {"tested_on": "human GAPDH mRNA", "assay": "GAPDH specificity screen in human MCF7 cells (β-Actin normalised qRT-PCR)", "type": "cell-based", "details": "normalised to β-Actin, three experiments, mean ± S.D.", "experimental": "A series of probes and primers were used to detect the various mRNA transcripts of the genes of β-Actin (human cell line only), and of GATA3 and GAPDH in mouse and human cell lines. All Taqman probes and primers for the experiments here-in described were supplied as pre-validated sets by Applied Biosystems, Inc. (see Table 2).\nThe assays were performed on an ABI 7900 instrument, according to the manufacturer's instructions. A TaqMan Gene Expression Master Mix (provided in the Cells-to-CT™, Applied Biosystems, Cat #4399002) was used. The PCR reactions were carried out at 50° C. for 2 min, 95° C. for 20 min followed by 40 cycles at 95° C. for 15 secs and 60° C. for 1 min.\nThe expression level of the gene of interest and % knock-down was calculated using Comparative Ct method: […]\nThese same three siNAs were tested for specificity in the human MCF7 cell line at 10 nM concentration to determine the effect of the GATA3 siNAs on the mRNA transcript of human GAPDH. In this assay, the samples from the primary screen, discussed above, O-Actin, a ubiquitously expressed ‘house-keeping’ gene, served as an endogenous control for normalization of the data."}}, "data": [{"substance": "30263-DC: GATA3 siNA duplex, site 817: sense B cGccucuGcuucAuGGAuc TTB (SEQ 79), antisense GAUccAuGAAGcAGAGGcGUU (SEQ 80) (sense CGCCUCUGCUUCAUGGAUCTT; antisense GAUCCAUGAAGCAGAGGCGUU; chemistry not fully specified)", "values": [{"measurement": "Density (GATA3)/Density (α-Tubulin)", "setting": "GATA3 protein", "result": "0.016 ± 0.0003"}, {"measurement": "% KD GAPDH 10 nM", "setting": "human GAPDH mRNA", "result": "11 ± 4", "unit": "%"}]}]}
